Type in all cases: subcellular
Test [1] deals with Bacterial 70S ribosome. Description: Binding affinity to Escherichia coli ribosomes assessed as apparent dissociation constant by scintillation counter analysis. The settings on record: read-out: Kd(app).
The target of test [2] is Bacterial 70S ribosome (Bacteria) (UniProt P0A7V0+P60723+P0AG67+P0A7R5+P0A7R9+P0A7S3+P0A7S9+P0AG59+P0ADZ4+P0A7T3+P0AG63+P0A7T7+P0A7U3+P0A7U7+P68679+P0A7V3+P0A7V8+P0A7W1+P02358+P02359+P0A7W7+P0A7X3+P0A7J3+P0A7J7+P0AA10+P0ADY3+P02413+P0ADY7+P0AG44+P0C018+P0A7K6+P0A7L0+P0A7L3+P0AG48+P61175+P0ADZ0+P60624+P68919+P0A7L8+P0A7M2+P0A7M6+P60422+P0AG51+P0A7N1+P0A7M9+P0A7N4+P0A7N9+P0A7P5+P0A7Q1+Q2EEQ2+P0A7Q6+P60438+P62399+P0AG55+P0A7K2). As to the kind of experiment: Potency index, ratio of clindamycin Ki(app) to test compound Ki(app) for binding affinity to Escherichia coli ribosomes.

In test [3] the target is Bacterial 70S ribosome. As to the kind of experiment: Binding affinity to Escherichia coli ribosomes assessed as apparent inhibition constant by scintillation counter analysis. The conditions noted are these: read-out: Ki(app).

As to `CS[C@H]1O[C@H]([C@H](NC(=O)[C@H]2NC[C@@H]3C[C@H](CC(C)C)CCO[C@H]32)[C@H](C)Cl)[C@H](O)[C@H](O)[C@H]1O`, on Bacterial 70S ribosome [1], the Kd stood at 34 nM. Also, the Ratio Ki(app) in test [2] stood at 70. Also, the Ki at Bacterial 70S ribosome [3] was 41 nM.
For the compound `CCC[C@@H]1C[C@@H](C(=O)N[C@@H]([C@H]2O[C@H](SC)[C@H](O)[C@@H](O)[C@H]2O)[C@H](C)Cl)N(C)C1` [CLINDAMYCIN], at Bacterial 70S ribosome [3], the Ki turned out to be 2700 nM.

The values above are taken from ChEMBL document CHEMBL5321254, “A method for tritiation of iboxamycin permits measurement of its ribosomal binding” (Bioorg Med Chem Lett, 2023).
